Test results as given in patent publication US20220135591A1, “HETEROCYCLIC COMPOUNDS AS INHIBITORS OF MONOACYLGLYCEROL LIPASE (MAGL)” (Hoffmann-La Roche Inc., priority 2019, published 2022).

Target: T1, MAGL (Homo sapiens, UniProt Q99685)
T1 sequence (Q99685 1-303): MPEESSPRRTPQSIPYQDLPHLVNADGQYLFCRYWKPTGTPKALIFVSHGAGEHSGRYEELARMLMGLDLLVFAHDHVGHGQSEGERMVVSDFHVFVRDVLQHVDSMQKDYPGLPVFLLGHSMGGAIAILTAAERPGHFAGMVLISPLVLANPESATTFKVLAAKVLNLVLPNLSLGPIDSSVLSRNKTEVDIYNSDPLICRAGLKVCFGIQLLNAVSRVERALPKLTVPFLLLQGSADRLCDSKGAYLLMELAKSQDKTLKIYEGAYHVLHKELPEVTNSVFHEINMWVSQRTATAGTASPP
Assay: 2-AG assay: MAGL inhibitory activity by hydrolysis of 2-arachidonoylglycerol to arachidonic acid, mass spectrometry
Type: biochemical
Conditions: 2-AG assay (values marked [b])
Procedure: Alternatively, compounds were profiled for MAGL inhibitory activity by determining the enzymatic activity by following the hydrolysis of the natural substrate 2-arachidonoylglycerol (2-AG) resulting in arachidonic acid, which can be followed by mass spectrometry. This assay is hereinafter abbreviated “2-AG assay”.
The 2-AG assay was carried out in 384 well assay plates (PP, Greiner Cat #784201) in a total volume of 20 μL. Compound dilutions were made in 100% DMSO (VWR Chemicals 23500.297) in a polypropylene plate in 3-fold dilution steps to give a final concentration range in the assay from 12.5 μM to […]. 0.25 μL compound dilutions (100% DMSO) were added to 9 μL MAGL in assay buffer (50 mM TRIS (GIBCO, 15567-027), 1 mM EDTA (Fluka, 03690-100 mL), 0.01% (v/v) Tween. After shaking, the plate was incubated for 15 min at RT. To start the reaction, 10 μL 2-arachidonoylglycerol in assay buffer was added. The final concentrations in the assay was […] and 8 μM 2-arachidonoylglyerol. After shaking and 30 min incubation at RT, the reaction was quenched by the addition of 40 μL of ACN containing 4 μM of d8-arachidonic acid. The amount of arachidonic acid was traced by an online SPE system (Agilent Rapidfire) coupled to a triple quadrupole mass spectrometer (Agilent 6460). A C18 SPE cartridge (G9205A) was used in an ACN/water liquid setup. The mass spectrometer was operated in negative electrospray mode following the mass transitions 303.1→259.1 for arachidonic acid and 311.1→267.0 for d8-arachidonic acid. The activity of the compounds was calculated based on the ratio of intensities [arachidonic acid/d8-arachidonic acid].

SMILES	IC50 [nM]
O=C(c1ccc(-c2cn(CC(F)(F)F)nn2)cc1)N1CCN(c2nc3nc(Cl)ccc3o2)CC1 [Example 98, (4-(5-chlorooxazolo[4,5-b]pyridin-2-yl)piperazin-1-yl)(4-(1-(2,2,2-trifluoroethyl)-1H-1,2,3-triazol-4-yl)phenyl)methanone]	144
Cc1ccc2oc(N3CCN(C(=O)c4ccc(-c5cn(CC(F)(F)F)nn5)cc4)CC3)nc2n1 [Example 99, (4-(5-methyloxazolo[4,5-b]pyridin-2-yl)piperazin-1-yl)(4-(1-(2,2,2-trifluoroethyl)-1H-1,2,3-triazol-4-yl)phenyl)methanone]	523
Cc1ccc2oc(N3CCN(C(=O)c4ccc(-c5cn(CC6(C)COC6)nn5)cc4)CC3)nc2n1 [Example 100, (4-(5-methyloxazolo[4,5-b]pyridin-2-yl)piperazin-1-yl)(4-(1-((3-methyloxetan-3-yl)methyl)-1H-1,2,3-triazol-4-yl)phenyl)methanone]	1080
CC1(Cn2cc(-c3ccc(C(=O)N4CCN(c5nc6nc(Cl)ccc6o5)CC4)cc3)nn2)COC1 [Example 101, (4-(5-chlorooxazolo[4,5-b]pyridin-2-yl)piperazin-1-yl)(4-(1-((3-methyloxetan-3-yl)methyl)-1H-1,2,3-triazol-4-yl)phenyl)methanone]	609
O=C(C#Cc1ccccc1)N1CCN(c2nc3nc(Cl)ccc3o2)CC1 [Example 102, 1-(4-(5-chlorooxazolo[4,5-b]pyridin-2-yl)piperazin-1-yl)-3-phenylprop-2-yn-1-one]	932
O=C(C#Cc1ccc(Cl)cc1)N1CCN(c2nc3nc(Cl)ccc3o2)CC1 [Example 103, 1-(4-(5-chlorooxazolo[4,5-b]pyridin-2-yl)piperazin-1-yl)-3-(4-chlorophenyl)prop-2-yn-1-one]	452
C#Cc1ccc(C(=O)N2CCN(c3nc4nc(Cl)ccc4o3)CC2)cc1OC [Example 104, (4-(5-chlorooxazolo[4,5-b]pyridin-2-yl)piperazin-1-yl)(4-ethynyl-3-methoxyphenyl)methanone]	109
O=C(c1ccc(-c2noc(C34CC(C3)C4)n2)cc1)N1CCN(c2nc3nc(Cl)ccc3o2)CC1 [Example 105, [4-[5-(3-bicyclo[1.1.1]pentanyl)-1,2,4-oxadiazol-3-yl]phenyl]-[4-(5-chlorooxazolo[4,5-b]pyridin-2-yl)piperazin-1-yl]methanone]	9
Cc1ccc2oc(N3CCN(C(=O)c4ccc(-c5ncn(C(C)(C)C)n5)c(F)c4)CC3)nc2n1 [Example 106, [4-(1-tert-butyl-1,2,4-triazol-3-yl)-3-fluorophenyl]-[4-(5-methyl-[1,3]oxazolo[4,5-b]pyridin-2-yl)piperazin-1-yl]methanone]	36
CC(C)(C)n1cnc(-c2ccc(C(=O)N3CCN(c4nc5nc(Cl)ccc5o4)CC3)cc2F)n1 [Example 107, [4-(1-tert-butyl-1,2,4-triazol-3-yl)-3-fluorophenyl]-[4-(5-chloro-[1,3]oxazolo[4,5-b]pyridin-2-yl)piperazin-1-yl]methanone]	15
Cc1ccc2oc(N3CCN(C(=O)c4ccc(-c5cn(C6(C(F)(F)F)CC6)nn5)cc4)CC3)nc2n1 [Example 108, [4-(5-methyl-[1,3]oxazolo[4,5-b]pyridin-2-yl)piperazin-1-yl]-[4-[1-[1-(trifluoromethyl)cyclopropyl]triazol-4-yl]phenyl]methanone]	154
Cc1ccc2oc(N3CCN(C(=O)c4ccc(-c5cn(C6(C)COC6)nn5)cc4)CC3)nc2n1 [Example 109, [4-(5-methyl-[1,3]oxazolo[4,5-b]pyridin-2-yl)piperazin-1-yl]-[4-[1-(3-methyloxetan-3-yl)triazol-4-yl]phenyl]methanone]	2520
CC1(n2cc(-c3ccc(C(=O)N4CCN(c5nc6nc(Cl)ccc6o5)CC4)cc3)nn2)COC1 [Example 110, [4-(5-chloro-[1,3]oxazolo[4,5-b]pyridin-2-yl)piperazin-1-yl]-[4-[1-(3-methyloxetan-3-yl)triazol-4-yl]phenyl]methanone]	859
